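Cultured in 96-well plates, cells were exposed to test compound for 48 hours across five concentrations. GI50: concentration for 50% inhibition of growth.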 Active and inactive are the calls of the source. Cut-off read from the data, not from the text of the source: active = GI50 up to about 1.1 µM and inactive = higher.
Key:
Assay in all cases: NCI anticancer screen, dose series, 48 h
CCRF-CEM = test system: CCRF-CEM
K562 = test system: K562
SF-295 = test system: SF-295
KM12 = test system: KM12
M14 = test system: M14
TK-10 = test system: TK-10
DMS-114 = test system: DMS-114
UO-31 = test system: UO-31
HOP-62 = test system: HOP-62
IGROV-1 = test system: IGROV-1
U-251 = test system: U-251
NCI-H460 = test system: NCI-H460
COLO 205 = test system: COLO 205
KM-20L2 = test system: KM-20L2
Malme-3M = test system: Malme-3M
786-0 = test system: 786-0
SF-268 = test system: SF-268
SNB-78 = test system: SNB-78
XF498 = test system: XF498
LXFL 529 = test system: LXFL 529
HOP-18 = test system: HOP-18
SK-MEL-5 = test system: SK-MEL-5
SN12C = test system: SN12C
UACC-257 = test system: UACC-257
OVCAR-4 = test system: OVCAR-4
SK-MEL-2 = test system: SK-MEL-2
SK-MEL-28 = test system: SK-MEL-28
UACC-62 = test system: UACC-62
EKVX = test system: EKVX
RXF 393 = test system: RXF 393
HCT-15 = test system: HCT-15
OVCAR-8 = test system: OVCAR-8
SW-620 = test system: SW-620
ACHN = test system: ACHN
HL-60 = test system: HL-60
SR = test system: SR
A549 = test system: A549
NCI-H23 = test system: NCI-H23
OVCAR-5 = test system: OVCAR-5
SNB-75 = test system: SNB-75
CAKI-1 = test system: CAKI-1
HCC 2998 = test system: HCC 2998
DLD-1 = test system: DLD-1
OVCAR-3 = test system: OVCAR-3
SK-OV-3 = test system: SK-OV-3
MOLT-4 = test system: MOLT-4
M19-MEL = test system: M19-MEL
NCI-H226 = test system: NCI-H226
HCT-116 = test system: HCT-116
LOX IMVI = test system: LOX IMVI
SNB-19 = test system: SNB-19
HT-29 = test system: HT-29
NCI-H522 = test system: NCI-H522
RPMI-8226 = test system: RPMI-8226
SF-539 = test system: SF-539

Measured: GI50

COc1ccccc1/N=C(\N)N/N=C/c1c[nH]c2ccccc12
4.2 µM: HCT-15
inactive: CCRF-CEM 5.93 µM | K562 2.22 µM | SF-295 8.97 µM | KM12 14.9 µM | M14 3.25 µM | TK-10 16.8 µM | DMS-114 3.39 µM | UO-31 13.3 µM | HOP-62 16.3 µM | IGROV-1 11 µM | U-251 11.6 µM | NCI-H460 8.87 µM | COLO 205 1.67 µM | KM-20L2 13.3 µM | Malme-3M 2.58 µM | 786-0 13.3 µM | SF-268 14.2 µM | SNB-78 6.85 µM | XF498 4.42 µM | LXFL 529 2.23 µM | HOP-18 18.6 µM | SK-MEL-5 2.78 µM | SN12C 10.4 µM | UACC-257 2.39 µM | OVCAR-4 16.8 µM | SK-MEL-2 6.46 µM | SK-MEL-28 3.57 µM | UACC-62 11.5 µM | EKVX 11 µM | RXF 393 14.1 µM | OVCAR-8 13 µM | SW-620 2.72 µM | ACHN 10.3 µM | HL-60 7.29 µM | SR 5.01 µM | A549 13.2 µM | NCI-H23 4.79 µM | OVCAR-5 13.9 µM | SNB-75 12.3 µM | CAKI-1 13.3 µM | HCC 2998 2.55 µM | DLD-1 13.8 µM | OVCAR-3 12.2 µM | SK-OV-3 15.6 µM | MOLT-4 3.13 µM | M19-MEL 11.1 µM | NCI-H226 14.4 µM | HCT-116 6.81 µM | LOX IMVI 10.4 µM | SNB-19 15.3 µM | HT-29 4.01 µM | NCI-H522 3.65 µM | RPMI-8226 3.13 µM | SF-539 13.5 µM
